From ChEMBL document CHEMBL1909046, “DrugMatrix in vitro pharmacology data”

What was measured:
[1] = molecular target: C-C chemokine receptor type 2 (Homo sapiens, UniProt P41597); assay type: cell membranes, CHO-K1, Membrane; conditions: cho-k1; note: in other assays of this panel Not Active means under 50% inhibition at 10 µM
D(4) dopamine receptor = molecular target: T1, D(4) dopamine receptor (Homo sapiens, UniProt P21917); test: DRUGMATRIX: Dopamine D4.2 radioligand binding (ligand: [3H] Spiperone); assay type: cell membranes, CHO-K1, Membrane; conditions: cho-k1; Not Active = under 50% inhibition at 10 µM
T1 sequence (P21917 whole entry): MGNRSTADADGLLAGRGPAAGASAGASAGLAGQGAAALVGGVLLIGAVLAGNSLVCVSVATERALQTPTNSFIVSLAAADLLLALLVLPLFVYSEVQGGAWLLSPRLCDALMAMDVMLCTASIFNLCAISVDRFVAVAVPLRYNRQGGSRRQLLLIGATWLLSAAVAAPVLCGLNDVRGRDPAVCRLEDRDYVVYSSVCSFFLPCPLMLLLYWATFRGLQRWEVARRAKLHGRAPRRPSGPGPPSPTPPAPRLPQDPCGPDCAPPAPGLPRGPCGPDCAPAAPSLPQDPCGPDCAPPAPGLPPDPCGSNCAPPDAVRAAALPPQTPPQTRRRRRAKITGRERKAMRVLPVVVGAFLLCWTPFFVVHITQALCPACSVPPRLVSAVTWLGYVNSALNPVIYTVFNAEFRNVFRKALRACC

[2] = DRUGMATRIX: Glutamate, AMPA radioligand binding (ligand: [3H] AMPA); assay type: cell membranes, Rattus norvegicus, Wistar, Cerebral cortex, Membrane; conditions: Not Active = under 50% inhibition at 10 µM
[3] = DRUGMATRIX: GABAA, Muscimol, Central radioligand binding (ligand: [3H] Muscimol); assay type: cell membranes, Rattus norvegicus, Wistar, Brain, Membrane; conditions: Not Active = under 50% inhibition at 10 µM
Calcitonin receptor = molecular target: T2, Calcitonin receptor (Homo sapiens, UniProt P30988); assay type: cell membranes, Membrane; conditions: t47d; note: in other assays of this panel Not Active means under 50% inhibition at 10 µM
T2 sequence (P30988 whole entry): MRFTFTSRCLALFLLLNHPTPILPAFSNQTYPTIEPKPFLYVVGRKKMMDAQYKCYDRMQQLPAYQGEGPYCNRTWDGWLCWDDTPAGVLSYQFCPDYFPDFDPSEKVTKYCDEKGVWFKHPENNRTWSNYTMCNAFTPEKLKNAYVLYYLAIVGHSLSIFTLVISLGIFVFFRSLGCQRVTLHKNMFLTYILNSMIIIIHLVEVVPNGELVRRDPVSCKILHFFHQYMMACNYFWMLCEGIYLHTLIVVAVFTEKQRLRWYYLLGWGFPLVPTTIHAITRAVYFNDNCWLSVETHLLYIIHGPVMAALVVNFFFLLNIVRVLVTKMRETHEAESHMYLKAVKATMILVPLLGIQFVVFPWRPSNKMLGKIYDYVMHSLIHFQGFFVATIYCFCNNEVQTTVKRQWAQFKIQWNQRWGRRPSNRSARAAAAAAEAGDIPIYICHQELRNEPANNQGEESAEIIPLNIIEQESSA

[4] = molecular target: T3, Type-2 angiotensin II receptor (Homo sapiens, UniProt P50052); assay type: cell-based; conditions: cho-k1; note: in other assays of this panel Not Active means under 50% inhibition at 10 µM
T3 sequence (P50052 whole entry): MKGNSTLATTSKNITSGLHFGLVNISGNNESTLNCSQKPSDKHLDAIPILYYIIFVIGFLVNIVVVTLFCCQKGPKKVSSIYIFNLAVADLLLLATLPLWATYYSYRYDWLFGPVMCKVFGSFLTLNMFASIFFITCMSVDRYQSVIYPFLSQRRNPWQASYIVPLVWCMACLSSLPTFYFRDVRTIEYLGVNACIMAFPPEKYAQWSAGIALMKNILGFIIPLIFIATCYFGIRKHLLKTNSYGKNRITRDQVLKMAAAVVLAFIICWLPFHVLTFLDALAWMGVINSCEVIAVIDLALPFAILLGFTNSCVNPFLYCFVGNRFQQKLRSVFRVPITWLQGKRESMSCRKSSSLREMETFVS

Cytochrome P450 2E1 = Cytochrome P450 2E1 (Homo sapiens, UniProt P05181); conditions: bti-tn-5b1-4; note: in other assays of this panel Not Active means under 50% inhibition at 10 µM
[5] = molecular target: Vascular endothelial growth factor receptor 1 (Homo sapiens, UniProt P17948); assay type: cell-based; conditions: huvec; note: in other assays of this panel Not Active means under 50% inhibition at 10 µM
[6] = DRUGMATRIX: beta-Lactamase enzyme inhibition (substrate: Nitrocefin); parameters: species or system Bacillus cereus; conditions: Not Active = under 50% inhibition at 10 µM
[7] = molecular target: Sodium-dependent dopamine transporter (Homo sapiens, UniProt Q01959); test: DRUGMATRIX: Dopamine Transporter radioligand binding (ligand: [125I] RTI-55); assay type: cell membranes, CHO-K1, Membrane; conditions: Not Active = under 50% inhibition at 10 µM
Chain of Sodium-dependent dopamine transporter (Q01959 whole entry): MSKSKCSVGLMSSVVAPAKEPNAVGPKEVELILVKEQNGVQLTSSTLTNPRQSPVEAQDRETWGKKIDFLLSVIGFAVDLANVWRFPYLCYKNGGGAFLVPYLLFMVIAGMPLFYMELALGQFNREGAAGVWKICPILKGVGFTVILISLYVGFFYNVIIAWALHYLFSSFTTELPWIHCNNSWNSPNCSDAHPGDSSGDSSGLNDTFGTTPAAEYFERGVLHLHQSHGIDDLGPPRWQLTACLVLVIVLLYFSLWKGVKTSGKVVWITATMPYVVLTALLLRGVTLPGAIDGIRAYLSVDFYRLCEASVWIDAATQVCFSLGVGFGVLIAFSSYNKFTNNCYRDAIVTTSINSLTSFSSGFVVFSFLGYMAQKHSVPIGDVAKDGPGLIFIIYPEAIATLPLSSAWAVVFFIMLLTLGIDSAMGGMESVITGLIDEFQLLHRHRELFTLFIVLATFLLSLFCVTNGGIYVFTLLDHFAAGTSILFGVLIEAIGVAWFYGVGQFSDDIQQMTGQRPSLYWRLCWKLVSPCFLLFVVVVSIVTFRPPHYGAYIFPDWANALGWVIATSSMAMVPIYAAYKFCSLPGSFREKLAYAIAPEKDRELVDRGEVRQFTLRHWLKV

Chain of C-C chemokine receptor type 2 (P41597 whole entry): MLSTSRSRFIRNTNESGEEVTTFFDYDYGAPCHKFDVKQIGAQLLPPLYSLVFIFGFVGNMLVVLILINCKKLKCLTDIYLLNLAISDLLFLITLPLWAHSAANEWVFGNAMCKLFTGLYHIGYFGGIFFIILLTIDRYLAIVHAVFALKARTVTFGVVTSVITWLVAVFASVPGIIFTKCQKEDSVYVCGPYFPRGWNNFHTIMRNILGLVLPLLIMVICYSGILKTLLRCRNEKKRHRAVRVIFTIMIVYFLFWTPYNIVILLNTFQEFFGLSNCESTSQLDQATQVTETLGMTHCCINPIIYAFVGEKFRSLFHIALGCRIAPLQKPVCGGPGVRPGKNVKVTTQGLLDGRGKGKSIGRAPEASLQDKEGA
Chain of Cytochrome P450 2E1 (P05181 whole entry): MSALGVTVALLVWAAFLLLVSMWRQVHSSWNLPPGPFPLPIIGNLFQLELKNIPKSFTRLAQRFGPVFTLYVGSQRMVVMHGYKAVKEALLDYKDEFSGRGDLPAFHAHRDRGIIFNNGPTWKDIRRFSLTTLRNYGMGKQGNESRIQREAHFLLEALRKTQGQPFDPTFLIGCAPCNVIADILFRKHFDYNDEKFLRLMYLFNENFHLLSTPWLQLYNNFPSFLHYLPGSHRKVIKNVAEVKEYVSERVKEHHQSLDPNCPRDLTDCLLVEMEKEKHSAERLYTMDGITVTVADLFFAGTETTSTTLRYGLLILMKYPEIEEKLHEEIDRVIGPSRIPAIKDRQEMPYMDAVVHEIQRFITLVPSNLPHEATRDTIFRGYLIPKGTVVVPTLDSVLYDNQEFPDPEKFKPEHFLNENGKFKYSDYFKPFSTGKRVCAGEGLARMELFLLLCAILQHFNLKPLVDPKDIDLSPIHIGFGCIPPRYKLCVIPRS
Chain of Vascular endothelial growth factor receptor 1 (P17948 whole entry): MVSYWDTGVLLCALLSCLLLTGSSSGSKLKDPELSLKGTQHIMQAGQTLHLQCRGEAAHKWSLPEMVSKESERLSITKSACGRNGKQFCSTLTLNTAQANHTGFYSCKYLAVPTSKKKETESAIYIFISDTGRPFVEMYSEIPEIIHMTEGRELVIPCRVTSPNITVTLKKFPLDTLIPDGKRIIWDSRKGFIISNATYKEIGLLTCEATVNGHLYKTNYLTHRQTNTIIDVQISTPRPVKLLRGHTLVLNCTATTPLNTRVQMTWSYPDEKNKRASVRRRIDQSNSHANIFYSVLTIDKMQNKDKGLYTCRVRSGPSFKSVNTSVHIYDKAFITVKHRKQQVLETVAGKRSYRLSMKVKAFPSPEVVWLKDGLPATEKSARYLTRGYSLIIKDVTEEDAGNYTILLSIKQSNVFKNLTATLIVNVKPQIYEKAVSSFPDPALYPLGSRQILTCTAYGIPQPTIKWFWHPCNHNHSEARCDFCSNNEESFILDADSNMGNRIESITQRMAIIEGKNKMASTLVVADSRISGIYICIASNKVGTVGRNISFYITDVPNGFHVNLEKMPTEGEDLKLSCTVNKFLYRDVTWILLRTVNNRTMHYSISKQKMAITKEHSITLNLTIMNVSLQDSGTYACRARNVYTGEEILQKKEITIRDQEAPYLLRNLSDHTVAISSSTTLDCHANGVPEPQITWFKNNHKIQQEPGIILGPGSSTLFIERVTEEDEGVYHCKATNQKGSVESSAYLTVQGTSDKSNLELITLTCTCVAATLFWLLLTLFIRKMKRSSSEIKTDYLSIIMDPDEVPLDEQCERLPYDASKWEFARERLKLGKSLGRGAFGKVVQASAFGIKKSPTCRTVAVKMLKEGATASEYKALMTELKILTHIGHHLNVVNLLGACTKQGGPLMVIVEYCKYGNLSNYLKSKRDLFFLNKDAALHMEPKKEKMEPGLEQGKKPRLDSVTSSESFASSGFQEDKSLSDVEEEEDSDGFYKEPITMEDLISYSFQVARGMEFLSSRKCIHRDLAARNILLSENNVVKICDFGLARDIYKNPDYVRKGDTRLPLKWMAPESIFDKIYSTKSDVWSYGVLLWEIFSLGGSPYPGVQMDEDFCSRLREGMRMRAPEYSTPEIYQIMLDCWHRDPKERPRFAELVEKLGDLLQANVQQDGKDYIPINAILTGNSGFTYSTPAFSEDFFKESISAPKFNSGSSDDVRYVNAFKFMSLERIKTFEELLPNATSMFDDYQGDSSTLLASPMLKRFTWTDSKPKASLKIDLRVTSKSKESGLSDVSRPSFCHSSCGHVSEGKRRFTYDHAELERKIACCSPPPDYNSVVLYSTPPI

Structure (SMILES)	IC50 [1]	IC50 (D(4) dopamine receptor)	IC50 [2]	Ki [2]	IC50 [3]	Ki [3]	IC50 (Calcitonin receptor)	IC50 [4]	IC50 (Cytochrome P450 2E1)	Ki (Cytochrome P450 2E1)	IC50 [5]	IC50 [6]	Ki [6]	IC50 ([7]; cho-k1)	IC50 ([6]; read-out: IC50) [nM]	IC50 ([7]; read-out: IC50) [nM]	Ki ([7]; read-out: Ki) [nM]
COc1ccc2cc(CC(=O)O)ccc2c1	Not Active	Not Active	Not Active	Not Active	Not Active	Not Active	Not Active	Not Active	Not Active	Not Active	Not Active	Not Active	Not Active	Not Active			
CC(C)NC[C@H](O)COc1cccc2[nH]ccc12	Not Active	Not Active	Not Active	Not Active	Not Active	Not Active	Not Active	Not Active			Not Active	Not Active	Not Active	Not Active			
c1ccc2c(c1)cc1ccc3cccc4ccc2c1c34	Not Active	Not Active	Not Active	Not Active	Not Active	Not Active	Not Active	Not Active	Not Active	Not Active	Not Active			Not Active	20700		
CC=CC(=O)N(CC)c1ccccc1C	Not Active	Not Active	Not Active	Not Active	Not Active	Not Active	Not Active	Not Active	Not Active	Not Active	Not Active	Not Active	Not Active	Not Active			
C=C1C(=O)O[C@@H]2C3O[C@]3(C)CC/C=C(\C)CC[C@@H]12 (stereo not given in full)	Not Active	Not Active	Not Active	Not Active	Not Active	Not Active	Not Active	Not Active	Not Active	Not Active	Not Active	Not Active	Not Active	Not Active			
CC(/C=C1\SC(=S)N(CC(=O)O)C1=O)=C\c1ccccc1	Not Active	Not Active	Not Active	Not Active	Not Active	Not Active	Not Active	Not Active	Not Active	Not Active	Not Active	Not Active	Not Active	Not Active			
CCCCCCCCCc1ccc(O)cc1 [4-NONYLPHENOL]	Not Active	Not Active	Not Active	Not Active	Not Active	Not Active	Not Active	Not Active	Not Active	Not Active	Not Active	Not Active	Not Active			1650	1310
COc1ccc2c(c1)c(CC(=O)OCC(=O)O)c(C)n2C(=O)c1ccc(Cl)cc1 [ACEMETACIN]	Not Active	Not Active	Not Active	Not Active	Not Active	Not Active	Not Active	Not Active	Not Active	Not Active	Not Active	Not Active	Not Active	Not Active			
CCCSc1ccc2nc(NC(=O)OC)[nH]c2c1 [ALBENDAZOLE]	Not Active	Not Active	Not Active	Not Active	Not Active	Not Active	Not Active	Not Active	Not Active	Not Active	Not Active	Not Active	Not Active	Not Active			
Cc1[nH]cnc1CN1CCc2c(c3ccccc3n2C)C1=O [ALOSETRON]	Not Active	Not Active	Not Active	Not Active	Not Active	Not Active	Not Active	Not Active	Not Active	Not Active	Not Active	Not Active	Not Active	Not Active			
Oc1c(Cl)cc(Cl)cc1Sc1cc(Cl)cc(Cl)c1O [BITHIONOL]	Not Active	Not Active	Not Active	Not Active	Not Active	Not Active	Not Active	Not Active	Not Active	Not Active	Not Active	Not Active	Not Active				
O=C1OCCN1/N=C/c1ccc([N+](=O)[O-])o1 [FURAZOLIDONE]	Not Active	Not Active	Not Active	Not Active	Not Active	Not Active	Not Active	Not Active			Not Active	Not Active	Not Active	Not Active			
NCC(=O)O [GLYCINE]	Not Active	Not Active	Not Active	Not Active	Not Active	Not Active	Not Active	Not Active			Not Active	Not Active	Not Active	Not Active			
O=P1(NCCCl)OCCCN1CCCl (stereo not given) [IFOSFAMIDE]	Not Active	Not Active	Not Active	Not Active	Not Active	Not Active	Not Active	Not Active			Not Active	Not Active	Not Active	Not Active			
Fc1ccc([C@@H]2CCNC[C@H]2COc2ccc3c(c2)OCO3)cc1 [PAROXETINE]	Not Active	Not Active	Not Active	Not Active	Not Active	Not Active	Not Active	Not Active	Not Active	Not Active	Not Active	Not Active	Not Active				
